Consider four compounds from patent publication US11446384B2, “Agent for targeting heart comprising tannic acid” (Korea Research Institute of Chemical Technology, priority 2018, dated 2022).

A value given as a limit tells only on which side of the number the result lay.

The target of series [1] is T1, elastin (Homo sapiens, UniProt P15502).
T1 sequence (P15502 27-786): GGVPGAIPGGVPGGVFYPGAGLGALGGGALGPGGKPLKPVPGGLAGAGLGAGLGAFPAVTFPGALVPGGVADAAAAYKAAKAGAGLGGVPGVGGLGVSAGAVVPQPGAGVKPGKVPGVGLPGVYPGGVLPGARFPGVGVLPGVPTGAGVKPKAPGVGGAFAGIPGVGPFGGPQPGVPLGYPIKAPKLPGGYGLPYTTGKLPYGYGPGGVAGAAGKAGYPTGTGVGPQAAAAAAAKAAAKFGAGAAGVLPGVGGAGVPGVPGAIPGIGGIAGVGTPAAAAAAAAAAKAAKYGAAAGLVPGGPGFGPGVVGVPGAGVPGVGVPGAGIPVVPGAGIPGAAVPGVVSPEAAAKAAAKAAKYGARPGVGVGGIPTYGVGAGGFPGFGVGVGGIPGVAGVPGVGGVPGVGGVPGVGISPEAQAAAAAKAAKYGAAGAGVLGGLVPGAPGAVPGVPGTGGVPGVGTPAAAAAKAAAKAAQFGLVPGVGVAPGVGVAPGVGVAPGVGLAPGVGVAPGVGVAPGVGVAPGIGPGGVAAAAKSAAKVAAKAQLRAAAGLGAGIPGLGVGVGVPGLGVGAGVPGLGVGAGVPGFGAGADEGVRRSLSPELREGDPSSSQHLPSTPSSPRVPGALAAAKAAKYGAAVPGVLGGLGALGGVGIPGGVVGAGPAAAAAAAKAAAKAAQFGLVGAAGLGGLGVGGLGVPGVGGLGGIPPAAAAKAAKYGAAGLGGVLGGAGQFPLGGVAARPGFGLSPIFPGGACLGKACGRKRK
Kind of series: Turbidimetry binding analysis of TA and elastin. Particulars: elastin 0.24 mg/mL, TA 17 mg/mL, 1:1. How it is done:
(§1) For turbidity analysis, each solution of elastin, type I collagen, HS and HA was prepared by diluting them in PBS at the concentration of 0.24 mg/mL. TA (17 mg/mL) was added to each solution at the volume ratio of 1:1, followed by mixing vigorously. Turbidity was measured at 600 nm using UV/vis spectrometer (HP8453, Hewlett-Packard, USA).

Series [2] concerns the target T2, type I collagen (Homo sapiens, UniProt P02452+P08123). Kind of series: Turbidimetry binding analysis of TA and type I collagen. The settings on record: type I collagen 0.24 mg/mL, TA 17 mg/mL, 1:1. How it is done:
as §1

Series [3] in a line: Turbidimetry binding analysis of TA and heparin sulfate. Particulars: HS 0.24 mg/mL, TA 17 mg/mL, 1:1. How it is done: as §1
Series [4] can be described thus: Turbidimetry binding analysis of TA and hyaluronic acid. The settings on record: HA 0.24 mg/mL, TA 17 mg/mL, 1:1. On the procedure: as §1
Series [5] concerns the target T2, type I collagen. Put plainly: SPR binding analysis of TA and type I collagen. Particulars: surface adsorbed with collagen, TA 2 mg/mL. On the procedure:
(§2) For SPR analysis, each solution of elastin, type I collagen (10 μg/mL) and TA (2 mg/mL) was prepared by diluting them in PBS (pH 7.3). All the solutions were filtered with 0.2 μm microfilter (Millipore, USA). Each protein (elastin or type I collagen) was adhered on Biacore gold (Au) sensor chip for 600 seconds. The chip was washed for 10 minutes to eliminate such samples attached weakly thereon. SPR analysis was performed at the flow rate of 10 μl/min using PBS as a flow buffer.
A general note: In SPR one partner is held on a chip, and binding of the other changes the refractive index at the surface.

Series [6] has as its target T1, elastin. Kind of series: SPR binding analysis of TA and elastin. Particulars: surface adsorbed with elastin, TA 2 mg/mL. On the procedure:
as §2

Series [7] deals with T1, elastin. Put plainly: ITC binding analysis of TA and elastin. How it is done:
Elastin (210 μg/mL) and TA (2.5 mg/mL) solutions were used for ITC analysis. Elastin was placed in a sample cell. The TA solution was placed in a syringe, which was injected to the elastin in the sample cell (250 μl) (50 sequential injections, 5 μl per injection) for titration (with stirring at 350 rpm). Time interval was set at 180 seconds for subsequent injection, and raw data was processed using Microcal Origin (Microcal Software, Northampton, USA).

Series [8] concerns myocardial ischemia reperfusion (MIR). Put plainly: Infarct size (TTC staining) in MIR animal model after intravenous bFGF. It is filed as in vivo, rats (SD rats). The settings on record: MIR rats, 28 days after injection. On the procedure:
Particularly, rats (SD rats, 8 weeks old, male, 230-270 g) were anesthetized with a mixture of isoflurane (3 cc min^-1), Rompun, xylazine (1 mg kg^-1) and oxygen in an induction chamber. Then, the rats were intubated and a mixture of isoflurane and oxygen was allowed to flow at a rate of 1 cc min^-1. The rat heart was exposed through left thoracotomy, followed by occulusion for 10 minutes. The suture line was quickly loosened to resume blood flow through the left anterior descending artery (LAD). […] Upon completion of the hemodynamic evaluation, the heart was separated and immersed in warm PBS ( 37° C.) to eliminate blood residues. Then, the heart was quickly frozen at -20° C., and the frozen heart was sliced lengthwise approximately 2 mm away the apex. The slice was placed on a cell culture dish, which was treated with 1% TTC (triphenyltetrazolium chloride) dissolved in PBS at 37° C. for 15 minutes. After staining, the heart slice was photographed with a scanner. Then, live tissues stained with red and necrotic tissues non-stained and thus presented as white were distinguished. The size of the infarct area was measured digitally using ImageJ software, and the results are presented as %.

For series [9] the test system is unchanged. Put plainly: In vivo hemodynamic evaluation of left ventricular function in MIR animal model. The arrangement: species or system rats (SD rats). Particulars: MIR rats; for EDP / EDV / ESP / ESV / Ea / HR / SW / Tau: 5 μg i.v., 28 days. How it is done: Particularly, rats (SD rats, 8 weeks old, male, 230-270 g) were anesthetized with a mixture of isoflurane (3 cc min^-1), Rompun, xylazine (1 mg kg^-1) and oxygen in an induction chamber. Then, the rats were intubated and a mixture of isoflurane and oxygen was allowed to flow at a rate of 1 cc min^-1. The rat heart was exposed through left thoracotomy, followed by occulusion for 10 minutes. The suture line was quickly loosened to resume blood flow through the left anterior descending artery (LAD). […] 28 days after the injection, in vivo hemodynamic evaluation was performed to investigate the left ventricular function using […]500 (Transonic, USA) outputting data to LabScribe data collection software (iWorx/CB Sciences, USA).

Series [10] in a line: Size of tannylated SP (particle size analyzer). Type of series: physicochemical. The settings on record: [SP]/[TA] ratio of 20 or 10. On the procedure:
The mixed solutions with the [SP]/[TA] ratios of 20, 10, 5, 1 and 0.5 prepared to produce tannylated SP in Example 2 were observed by naked eye. Then, the size of tannylated SP ([SP]/[TA] ratio=20 and 10, volume=1 mL) was analyzed using a particle size analyzer (Zetasizer nano-ZS, Malvern instrument, UK).

The mark [11] stands for this setting: 5 μg i.v., non-treated control 51%.

T2 sequence (P02452 162-1218 limits assumed): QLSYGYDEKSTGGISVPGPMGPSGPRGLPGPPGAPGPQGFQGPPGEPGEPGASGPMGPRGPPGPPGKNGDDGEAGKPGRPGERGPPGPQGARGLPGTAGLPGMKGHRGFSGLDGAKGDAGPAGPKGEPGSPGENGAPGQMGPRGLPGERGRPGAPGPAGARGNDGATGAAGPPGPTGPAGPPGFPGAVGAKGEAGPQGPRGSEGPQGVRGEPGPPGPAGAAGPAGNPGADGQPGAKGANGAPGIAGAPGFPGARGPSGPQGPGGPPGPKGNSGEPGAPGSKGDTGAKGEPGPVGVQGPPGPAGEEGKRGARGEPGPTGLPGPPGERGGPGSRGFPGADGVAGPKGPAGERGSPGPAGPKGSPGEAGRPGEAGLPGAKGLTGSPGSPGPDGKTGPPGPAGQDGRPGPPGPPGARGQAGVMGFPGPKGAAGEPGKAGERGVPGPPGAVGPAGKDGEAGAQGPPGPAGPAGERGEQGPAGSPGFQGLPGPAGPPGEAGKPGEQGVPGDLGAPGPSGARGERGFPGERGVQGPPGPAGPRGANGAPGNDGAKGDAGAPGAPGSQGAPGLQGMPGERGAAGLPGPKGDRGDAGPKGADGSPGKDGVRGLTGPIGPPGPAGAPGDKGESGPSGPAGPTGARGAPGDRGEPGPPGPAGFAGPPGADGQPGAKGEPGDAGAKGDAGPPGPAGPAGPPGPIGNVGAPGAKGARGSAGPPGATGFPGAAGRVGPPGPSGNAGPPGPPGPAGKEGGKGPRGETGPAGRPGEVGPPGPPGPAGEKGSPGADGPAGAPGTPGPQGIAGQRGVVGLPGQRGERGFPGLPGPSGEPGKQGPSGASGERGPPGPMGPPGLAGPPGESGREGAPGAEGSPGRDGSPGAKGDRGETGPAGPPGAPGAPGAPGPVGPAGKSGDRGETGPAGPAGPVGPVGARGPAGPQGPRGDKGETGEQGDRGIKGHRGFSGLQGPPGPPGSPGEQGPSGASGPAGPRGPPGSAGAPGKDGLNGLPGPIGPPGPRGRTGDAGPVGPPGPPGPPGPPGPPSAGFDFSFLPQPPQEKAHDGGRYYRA
T2 sequence (P08123 80-1119 limits assumed): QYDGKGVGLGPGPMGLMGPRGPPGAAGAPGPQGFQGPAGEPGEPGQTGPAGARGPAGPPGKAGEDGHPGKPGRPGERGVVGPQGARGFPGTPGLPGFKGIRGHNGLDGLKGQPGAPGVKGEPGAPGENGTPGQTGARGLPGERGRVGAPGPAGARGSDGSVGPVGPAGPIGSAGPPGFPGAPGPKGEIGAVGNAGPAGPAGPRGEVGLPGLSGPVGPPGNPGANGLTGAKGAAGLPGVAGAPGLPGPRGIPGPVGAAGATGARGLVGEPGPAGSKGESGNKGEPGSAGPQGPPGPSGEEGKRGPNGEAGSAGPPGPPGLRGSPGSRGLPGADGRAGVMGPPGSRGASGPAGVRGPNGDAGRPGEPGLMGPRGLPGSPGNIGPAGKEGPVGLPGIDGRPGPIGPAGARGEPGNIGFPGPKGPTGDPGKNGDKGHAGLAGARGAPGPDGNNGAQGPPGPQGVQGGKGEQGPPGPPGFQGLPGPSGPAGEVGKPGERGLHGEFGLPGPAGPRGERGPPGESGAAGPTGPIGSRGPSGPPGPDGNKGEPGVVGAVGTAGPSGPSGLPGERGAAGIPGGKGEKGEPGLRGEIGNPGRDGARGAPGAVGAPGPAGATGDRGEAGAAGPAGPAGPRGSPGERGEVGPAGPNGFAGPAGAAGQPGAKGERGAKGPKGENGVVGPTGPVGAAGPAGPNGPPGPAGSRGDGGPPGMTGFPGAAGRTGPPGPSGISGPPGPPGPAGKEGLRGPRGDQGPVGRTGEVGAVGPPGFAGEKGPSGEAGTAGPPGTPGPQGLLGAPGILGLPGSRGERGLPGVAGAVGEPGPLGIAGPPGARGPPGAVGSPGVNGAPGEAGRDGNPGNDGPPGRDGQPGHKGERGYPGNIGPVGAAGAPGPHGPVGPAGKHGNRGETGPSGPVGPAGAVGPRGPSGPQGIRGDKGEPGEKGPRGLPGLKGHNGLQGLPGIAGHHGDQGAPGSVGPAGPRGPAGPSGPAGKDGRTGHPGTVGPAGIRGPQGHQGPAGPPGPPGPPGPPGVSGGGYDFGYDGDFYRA

Turning to `O=C(OC[C@H]1O[C@@H](OC(=O)c2cc(O)c(O)c(OC(=O)c3cc(O)c(O)c(O)c3)c2)[C@H](OC(=O)c2cc(O)c(O)c(OC(=O)c3cc(O)c(O)c(O)c3)c2)[C@@H](OC(=O)c2cc(O)c(O)c(OC(=O)c3cc(O)c(O)c(O)c3)c2)[C@@H]1OC(=O)c1cc(O)c(O)c(OC(=O)c2cc(O)c(O)c(O)c2)c1)c1cc(O)c(O)c(OC(=O)c2cc(O)c(O)c(O)c2)c1` [tannic acid], the “turbidity (A600) of elastin solution after addition of TA” value in [1] amounted to 1.219±0.022. Moreover, in [2], the “turbidity (A600) of collagen solution after addition of TA” value worked out at 0.173±0.022. Besides, the “turbidity change of HS solution after addition of TA” value in series [3] was “no turbidity change was observed”. The “turbidity change of HA solution after addition of TA” value in series [4] is recorded as “no turbidity change was observed”. For the same compound, the “SPR ΔRU value” in [5] came to 793. Moreover, in series [6], the “SPR ΔRU value” was determined as 1319. Further, in series [7] (ITC), the “[TA]/[elastin] ratio of first step (TA conjugated with elastin inter-molecularly)” value is given as “up to 20” and the “[TA]/[elastin] ratio of second step (inter-TA/elastin complexes conjugated each other)” value is reported as no less than 30. Also, in series [7] (elastin 210 μg/mL, TA […]), the “ITC thermodynamics of binding between TA and elastin” value was “exothermic interaction”.

In [8] (setting [11]), “bFGF: basic fibroblast growth factor, SEQ ID NO: 1” registered an infarct size of 31%. In addition, in [8] (25 μg i.v.), the infarct size entry is “not much different from when 5 μg of bFGF was administered”. Moreover, in series [9], the EDP worked out at 8.5 ± 0.9 mmHg, the EDV came to 365.3 ± 27.5 µL, the ESP was 85.3 ± 1.7 mmHg and the ESV amounted to 254.5 ± 13.8 µL. In series [9], this compound had an Ea of 0.86 ± 0.12 mmHg/μL, an HR of 316.5 ± 12.9 bpm, an SW of 1.51 ± 0.14 mmHg · mL · kg and a Tau of 11.7 ± 0.5 ms.

Consider “tannylated SP: substance P (SEQ ID NO: 2, RPKPQQFFGLM) mixed with tannic acid solution at [SP]/[TA] ratios 0.5-20”, for which the size of complex result in [10] is “up to 1 μm”.

On to “tannylated bFGF: bFGF (SEQ ID NO: 1) mixed with TA solution, stoichiometric molar ratio [TA]/[bFGF] of 143”, for which the infarct size result in [8] (setting [11]) is “approximately 16%”. In addition, in series [9], the EDP amounted to 9.8 ± 1.6 mmHg, the EDV worked out at 295.9 ± 23.3 µL, the ESP is 103.8 ± 4.6 mmHg and the ESV is 133.9 ± 19.5 µL. In series [9], this compound came in with an Ea of 0.77 ± 0.14 mmHg/μL, an HR of 322.7 ± 18.0 bpm, an SW of 3.00 ± 0.53 mmHg · mL · kg and a Tau of 11.7 ± 1.1 ms. For the same compound, the “hemodynamic functional values (left ventricular pressure, stroke volume, cardiac output, ventricular contractility index)” value in series [9] (i.v., 28 days after injection, versus sham group) is on record as “recovered all the hemodynamic functional values”.
